Data from patent US6416780B1 (Galen (Chemicals) Limited, priority 1997, dated 2002).
Where two headings read alike, the source gives them in different places.

Key:
[1] = In vitro release from Example 3 rings into 0.9% saline over 30 days; type: physicochemical; details: 30 day monitoring period
[2] = for In vitro release into 0.9% saline (as total testosterone): core loading 10% w/w testosterone; for sink conditions in 0.9% saline: rings of Examples 1 and 2, 250 ml, 37° C.
Protocol: The rings were tested in vitro at a constant temperature of 37° C. for their release characteristics in a sufficient volume (250 ml) of each of the following media: 0.9% (w/v) saline and 1.0% (w/v) aqueous benzalkonium chloride (BKC).
Thus, each ring was suspended by a thread in an individual enclosed flask containing the dissolution medium, maintained at a constant temperature of 37° C. The contents of the flask were gently agitated in order to prevent the occurrence of a hydrostatic layer on the surface of the ring. After 24 hours (±30 minutes), the ring was removed and suspended in a flask of fresh dissolution medium of identical volume.

[3] = In vitro release from Example 6 pessary bullets into 0.9% saline; details: following an initial burst phase
[4] = human female, cited from earlier work
[5] = Example 2 rings; 1.0% BKC versus 0.9% saline
[6] = In vitro release from Example 5 testosterone-17-propionate ring into 0.9% saline over 26 days; type: physicochemical; details: for In Vitro Release of Testosterone-17-propionate, Release Rate: Example 5 ring core length 90 mm

For `C[C@]12CC[C@H]3[C@@H](CCC4=CC(=O)CC[C@@]43C)[C@@H]1CC[C@@H]2O` [testosterone], the “in vitro release pattern” value [1] was “substantially zero order pattern”, the “In vitro release into 0.9% saline (as total testosterone)” value (“In vitro release into 0.9% saline” for short) ([2]; ring core length 30 mm, day 2) was 270 µg/day and the “In vitro release into 0.9% saline” value ([2]; ring core length 30 mm, day 3) was 232 µg/day. For the same compound, the “In vitro release into 0.9% saline” value ([2]; ring core length 30 mm, day 5) was 237 µg/day, the “In vitro release into 0.9% saline” value ([2]; ring core length 30 mm, day 8) was 228 µg/day and the “In vitro release into 0.9% saline” value ([2]; ring core length 30 mm, day 9) was 229 µg/day. The “In vitro release into 0.9% saline” value ([2]; ring core length 30 mm, day 10) was 226 µg/day, the “In vitro release into 0.9% saline” value ([2]; ring core length 30 mm, day 13) was 238 µg/day and the “In vitro release into 0.9% saline” value ([2]; ring core length 30 mm, day 15) was 227 µg/day. For the same compound, the “In vitro release into 0.9% saline” value ([2]; ring core length 30 mm, day 16) was 216 µg/day, the “In vitro release into 0.9% saline” value ([2]; ring core length 30 mm, day 17) was 224 µg/day and the “In vitro release into 0.9% saline” value ([2]; ring core length 60 mm, day 2) was 471 µg/day. For the same compound, the “In vitro release into 0.9% saline” value ([2]; ring core length 60 mm, day 3) was 401 µg/day, the “In vitro release into 0.9% saline” value ([2]; ring core length 60 mm, day 5) was 419 µg/day and the “In vitro release into 0.9% saline” value ([2]; ring core length 60 mm, day 8) was 400 µg/day. For the same compound, the “In vitro release into 0.9% saline” value ([2]; ring core length 60 mm, day 9) was 407 µg/day, the “In vitro release into 0.9% saline” value ([2]; ring core length 60 mm, day 10) was 406 µg/day and the “In vitro release into 0.9% saline” value ([2]; ring core length 60 mm, day 13) was 430 µg/day. The “In vitro release into 0.9% saline” value ([2]; ring core length 60 mm, day 15) was 408 µg/day, the “In vitro release into 0.9% saline” value ([2]; ring core length 60 mm, day 16) was 392 µg/day and the “In vitro release into 0.9% saline” value ([2]; ring core length 60 mm, day 17) was 388 µg/day. The “In vitro release into 0.9% saline” value ([2]; ring core length 90 mm, day 2) was 696 µg/day, the “In vitro release into 0.9% saline” value ([2]; ring core length 90 mm, day 3) was 572 µg/day and the “In vitro release into 0.9% saline” value ([2]; ring core length 90 mm, day 5) was 588 µg/day. For the same compound, the “In vitro release into 0.9% saline” value ([2]; ring core length 90 mm, day 8) was 592 µg/day, the “In vitro release into 0.9% saline” value ([2]; ring core length 90 mm, day 10) was 581 µg/day and the “In vitro release into 0.9% saline” value ([2]; ring core length 90 mm, day 13) was 623 µg/day. The “In vitro release into 0.9% saline” value ([2]; ring core length 90 mm, day 15) was 595 µg/day, the “In vitro release into 0.9% saline” value ([2]; ring core length 90 mm, day 16) was 584 µg/day and the “In vitro release into 0.9% saline” value ([2]; ring core length 90 mm, day 17) was 612 µg/day. The “sink conditions in 0.9% saline” value [2] was “‘Sink conditions’ were evident”, the “in vitro release pattern” value [3] was “substantially zero order release” and the “testosterone delivered per day” value ([4]; matrix (non-rate controlled) transdermal system, per day) was “about 1000 μg”. For the same compound, the “mean circulating plasma testosterone levels” value ([4]; matrix transdermal system delivering about 1000 μg per day) was 4 to 6 nM.
With `CC(=O)O[C@H]1CC[C@H]2[C@@H]3CCC4=CC(=O)CC[C@]4(C)[C@H]3CC[C@]12C` [testosterone-17-acetate] the “sink conditions in 0.9% saline” value [2] was “‘non-sink conditions’ exist in saline” and the “in vitro release rates into BKC compared with saline” value [5] was “considerably higher than those into saline”.
With `CCC(=O)O[C@H]1CC[C@H]2[C@@H]3CCC4=CC(=O)CC[C@]4(C)[C@H]3CC[C@]12C` [testosterone-17-propionate] the “In Vitro Release of Testosterone-17-propionate, Release Rate” value ([6]; 0.9% saline, day 2) was 171 µg/day, the “In Vitro Release of Testosterone-17-propionate, Release Rate” value ([6]; 0.9% saline, day 3) was 328 µg/day and the “In Vitro Release of Testosterone-17-propionate, Release Rate” value ([6]; 0.9% saline, day 4) was 337 µg/day. For the same compound, the “In Vitro Release of Testosterone-17-propionate, Release Rate” value ([6]; 0.9% saline, day 5) was 465 µg/day, the “In Vitro Release of Testosterone-17-propionate, Release Rate” value ([6]; 0.9% saline, day 7) was 457 µg/day and the “In Vitro Release of Testosterone-17-propionate, Release Rate” value ([6]; 0.9% saline, day 13) was 527 µg/day. For the same compound, the “In Vitro Release of Testosterone-17-propionate, Release Rate” value ([6]; 0.9% saline, day 14) was 587 µg/day, the “In Vitro Release of Testosterone-17-propionate, Release Rate” value ([6]; 0.9% saline, day 19) was 585 µg/day and the “In Vitro Release of Testosterone-17-propionate, Release Rate” value ([6]; 0.9% saline, day 20) was 663 µg/day. The “In Vitro Release of Testosterone-17-propionate, Release Rate” value ([6]; 0.9% saline, day 26) was 637 µg/day, the “lag phase of in vitro release” value ([6]; Example 5 ring, freshly made, 0.9% saline) was 13 days and the “in vitro release pattern” value ([6]; Example 5 ring, 0.9% saline, 13 day monitoring after the lag phase) was “substantially zero order pattern”. For the same compound, the “amounts released compared with testosterone” value ([6]; intravaginal rings, high dose applications) was “amounts released are greater”.
